The values below come from US20230131376A1, “ADJUVANT-ANTIBIOTIC COMBINATION AGAINST GRAM-NEGATIVE BACTERIA” (University of Notre Dame du Lac, priority 2020, published 2023).

One data set concerns 4T1 cells. Put plainly: MTT cell viability assay. The data set is classed as cell-based, mouse. The settings on record: 4T1 cells, 18 h, concentration giving 50% cell viability; for CT50, Compound + colistin: with 1 μg/mL colistin; for CT50, Compound alone: without colistin. Here is the method: MTT Cell Viability Assay. 4T1 cells (ATCC Manassas, Va.) were plated at a density of 1×10^4 cells/well in 96-well plates. (Roswell Park Memorial Institute Media 1640, Gibco, Gaithersburg, Md.) supplemented with 10% Fetal Bovine Serum (Gibco), 2 mM GlutaMAX (Gibco) and 50 μM 2-mercaptoethanol (Sigma Aldrich St. Louis, Mo.) and incubated at 37° C. under a 5% CO2 atmosphere in the dark for 18 h. Cell cultures were treated with serial dilutions of compounds in the presence or absence of 1 μg/mL colistin (3 replicates per condition) and incubated for an additional 18 hours. The following control conditions were used: media only (blank), 1% Triton X100 (0% cell viability), 0.5% DMSO (100% cell viability). Each condition was then treated with 10% volume of a 5 mg/mL solution of 3-(4,5-dimethylthiazol-2-yl)-2,5-diphenyltetrazolium bromide (MTT) (Sigma Aldrich) in sterile filtered 1× phosphate buffered saline (PBS) and incubated for 2 h. at 37° C. in 5% CO2, after which the media was aspirated and the resulting formazan crystals were resuspended in 100 μL acidified (4 mM HCl) isopropanol. The 96-well plate was then read at 540 nm on a FLUOstar Optima (BMG Labtech Cary, N.C.) microplate reader. Cell viability was calculated as a percentage using the two previously mentioned controls.
For orientation: Tetrazolium dyes change colour on reduction, which living cells bring about.

Data set [1] has as its system mcr-1 plasmid containing E. coli, K. pneumoniae, and A. baumannii. The data set is described as follows: Colistin potentiation stated for all three mcr-1 strains together.
The subject of data set [2] is several MDR Gram-negative bacterial strains. The settings on record: cited from earlier work.
For a further data set, the system named is K. pneumoniae B9. Put plainly: Colistin potentiation, chromosomally colistin resistant K. pneumoniae B9. Format: cell-based. The settings on record: K. pneumoniae B9. The text has this:
(§1) Broth microdilution method for antibiotic potentiation.

For a further data set, the system named is K. pneumoniae C3. The data set is described as follows: Colistin potentiation, chromosomally colistin resistant K. pneumoniae C3. Format: cell-based.
Excerpt: as §1

Another data set deals with A. baumannii 3941. The data set is described as follows: Colistin potentiation, chromosomally colistin resistant A. baumannii 3941. Format: cell-based.
Excerpt: as §1

For a further data set, the system named is A. baumannii 4106. The data set is described as follows: Colistin potentiation, chromosomally colistin resistant A. baumannii 4106. The data set is classed as cell-based.
Excerpt: as §1

Where [3] appears, read: adjuvant at 15 μM, susceptibility breakpoint 2 μg/mL.

With `O=C(NCCc1c[nH]c2ccccc12)Nc1cc(C(F)(F)F)cc(C(F)(F)F)c1` [Compound 8c, 1-(2-(1H-indol-3-yl)ethyl)-3-(3,5-bis(trifluoromethyl)phenyl)urea], in the data set with 4T1 cells, the “CT50, Compound + colistin” value turned out to be 61.8 µM and the “CT50, Compound alone” value came out at 60.5 µM. Further, the “colistin MIC with adjuvant, all three mcr-1 strains” value in data set [1] (setting [3]) is on record as “lowered the colistin MIC to the susceptibility breakpoint”.
`O=C(NCCc1c[nH]c2ccccc12)c1cc(Cl)c(Cl)[nH]1` [Compound 2]: the “ability to potentiate colistin activity” value in data set [2] was “demonstrated the ability to potentiate colistin activity”.
For `CCNc1nccc(-c2c[nH]c3ccc(Br)cc23)n1` [Compound 4], in data set [2], the “ability to potentiate colistin activity” value is given as “demonstrated the ability to potentiate colistin activity”.
`O=C(NCCc1c[nH]c2ccccc12)Nc1cc(Cl)c(Br)c(Cl)c1` [Compound 8e, 1-(2-(1H-indol-3-yl)ethyl)-3-(4-bromo-3,5-dichlorophenyl)urea]: the “colistin MIC with adjuvant, all three mcr-1 strains” value in data set [1] (setting [3]) is given as “lowered the colistin MIC to the susceptibility breakpoint”.
Turning to `CC(C)n1cc(-c2cccc(NC(=O)Nc3cc(Cl)c(Br)c(Cl)c3)c2)nc1N` [Compound 14, reference compound], in the data set on 4T1 cells, the “CT50, Compound + colistin” value amounted to 15.6 µM and the “CT50, Compound alone” value was found to be 23.2 µM.
Take `CC(C)n1cc(-c2cccc(NC(=O)Nc3cc(Br)cc(Br)c3)c2)nc1N` [Compound 3]: in data set [2], the “ability to potentiate colistin activity” value is “demonstrated the ability to potentiate colistin activity”.
On to `O=C(NCCc1c[nH]c2ccccc12)Nc1cc(Br)cc(Br)c1` [Compound 8b, 1-(2-(1H-indol-3-yl)ethyl)-3-(3,5-dibromophenyl)urea], for which the “colistin MIC with adjuvant” value in the data set on K. pneumoniae B9 (adjuvant at 7.5 μM) came to 4 µg/mL; in the data set with K. pneumoniae B9 (adjuvant at 8 μM) it was 32 µg/mL; in the data set with K. pneumoniae B9 (adjuvant at 10 μM) it was 1 µg/mL; in the data set with K. pneumoniae B9 (adjuvant at 15 μM) it was 0.5 µg/mL; with K. pneumoniae C3 (adjuvant at 10 μM) it was 8 µg/mL; in the data set on K. pneumoniae C3 (adjuvant at 15 μM) it was 4 µg/mL. The “colistin MIC with adjuvant” value in the data set on K. pneumoniae C3 (adjuvant at 20 μM) amounted to 2 µg/mL; in the data set with A. baumannii 3941 (adjuvant at 10 μM), 16 µg/mL; in the data set on A. baumannii 3941 (adjuvant at 15 μM), 8 µg/mL; in the data set on A. baumannii 3941 (adjuvant at 20 μM) it was 8 µg/mL; in the data set on A. baumannii 4106 (adjuvant at 10 μM), 8 µg/mL; in the data set with A. baumannii 4106 (adjuvant at 15 μM) it was 4 µg/mL. Also, the “colistin MIC with adjuvant” value in the data set on A. baumannii 4106 (adjuvant at 20 μM) amounted to 4 µg/mL. In the data set with 4T1 cells, the “CT50, Compound + colistin” value stood at 64.2 µM. The “CT50, Compound alone” value in the data set on 4T1 cells was 86.2 µM. In data set [1] (setting [3]), the “colistin MIC with adjuvant, all three mcr-1 strains” value is given as “lowered the colistin MIC to the susceptibility breakpoint”.
As to `O=C(NCCc1c[nH]c2ccccc12)c1ccc(Cl)c(Cl)c1` [Compound 1d, N-(2-(1H-indol-3-yl)ethyl)-3,4-dichlorobenzamide], in data set [1] (adjuvant at 50 μM), the “colistin MIC with adjuvant, all three mcr-1 strains” value is 2 µg/mL and the “fold reduction of colistin MIC, all mcr-1 containing strains” value is listed as 4-8 fold.
With `O=C(NCCc1c[nH]c2ccccc12)Nc1ccc(Cl)c(Cl)c1` [Compound 8d, 1-(2-(1H-indol-3-yl)ethyl)-3-(3,4-dichlorophenyl)urea], in the data set on 4T1 cells, the “CT50, Compound + colistin” value amounted to 104.8 µM and the “CT50, Compound alone” value is 117.3 µM.
`O=C(NCCc1c[nH]c2ccc(Br)cc12)Nc1ccc(Cl)c(Cl)c1` [Compound 9d, 1-(2-(5-bromo-1H-indol-3-yl)ethyl)-3-(3,4-dichlorophenyl)urea]: the “colistin MIC with adjuvant” value in the data set with K. pneumoniae B9 (adjuvant at 5 μM) came to 8 µg/mL; in the data set with K. pneumoniae B9 (adjuvant at 7.5 μM) it was 2 µg/mL; in the data set on K. pneumoniae B9 (adjuvant at 10 μM), 1 µg/mL; with K. pneumoniae B9 (adjuvant at 15 μM), 0.5 µg/mL; in the data set on K. pneumoniae C3 (adjuvant at 10 μM), 4 µg/mL; in the data set on K. pneumoniae C3 (adjuvant at 15 μM), 2 µg/mL. For the same compound, the “colistin MIC with adjuvant” value in the data set on K. pneumoniae C3 (adjuvant at 20 μM) turned out to be 1 µg/mL; with A. baumannii 3941 (adjuvant at 10 μM), 8 µg/mL; with A. baumannii 3941 (adjuvant at 15 μM), 4 µg/mL; with A. baumannii 3941 (adjuvant at 20 μM) it was 2 µg/mL; in the data set with A. baumannii 4106 (adjuvant at 10 μM), 4 µg/mL; in the data set on A. baumannii 4106 (adjuvant at 15 μM), 2 µg/mL. Also, the “colistin MIC with adjuvant” value with A. baumannii 4106 (adjuvant at 20 μM) came out at 2 µg/mL. The “CT50, Compound + colistin” value with 4T1 cells came to 84.6 µM. Also, the “CT50, Compound alone” value with 4T1 cells worked out at 125.5 µM.
